Measured values as given in publication PMC3313020 (Cancer Chemotherapy and Pharmacology, 2011).
Values joined by “and” are separate entries in the source; they are usually repeats but may differ in a detail not shown here. Equal values may be shown once. Read-outs that look alike come from different tables or passages of the source.

Experiments:
advanced NSCLC = advanced NSCLC progressed after first-line chemotherapy; cited from earlier work
NSCLC = conditions: cited from earlier work
[1] = Steady-state plasma pharmacokinetics; format: in vivo, human
metastatic NSCLC = conditions: single agent, second- or third-line; cited from earlier work
[2] = single-agent enzastaurin 525 mg orally daily; cited from earlier work
[3] = 150 mg erlotinib daily with 250 mg enzastaurin, geometric mean (CV%), n 3
[4] = 150 mg erlotinib daily with 500 mg enzastaurin, geometric mean (CV%), n 11

Structure (SMILES) | overall response rate (advanced NSCLC) | hazard ratio (overall survival vs placebo) (NSCLC; P < 0.001) | response rate (NSCLC; unselected population, vs placebo <1%, P < 0.001) | overall survival (NSCLC; vs placebo 4.7 months) | C av,ss [1, 3] | CLss/F [1, 3] | C av,ss [1, 4] | CLss/F [1, 4] | patients with prolonged stabilization >6 months (metastatic NSCLC) | AUCτ,ss [2] | CLss/F [2] | C av,ss ([1]; enzastaurin 500 mg once daily with erlotinib 150 mg daily, geometric mean (CV%), N 12) | Tmax ([1]; human, plasma, oral) | AUC ([1]; human, plasma, oral, AUCτ,ss, enzastaurin 500 mg once daily with erlotinib 150 mg daily, geometric mean (CV%), N 12) | Cmax ([1]; human, plasma, oral, C max,ss, enzastaurin 500 mg once daily with erlotinib 150 mg daily, geometric mean (CV%), N 12)
C#Cc1cccc(Nc2ncnc3cc(OCCOC)c(OCCOC)cc23)c1 [erlotinib] | 6.2% | 0.70 | 8.9% | 6.7 months | 1,030 (19) ng/mL | 6.07 L/h and 6.07 (19) L/h | 1,090 (45) ng/mL | 5.75 L/h and 5.75 (45) L/h | – | – | – | – | – | – | –
Cn1cc(C2=C(c3cn(C4CCN(Cc5ccccn5)CC4)c4ccccc34)C(=O)NC2=O)c2ccccc21 [Enzastaurin] | – | – | – | – | – | – | – | – | 11% | 23,600 nmol × h/L | 40.3 L/h | 750 (71) nmol/L | 4.04 h | 18 µM·h | 1600 nM
